ChEMBL document CHEMBL4190294, “Design, synthesis and antiproliferative activity of decarbonyl luotonin analogues” (Eur J Med Chem, 2017)
Active and inactive are the calls of the source. The rule behind the calls is not given here.

How the values were obtained:
[1] = molecular target: T1, DNA topoisomerase 1 (Homo sapiens) (UniProt P11387); assay: Inhibition of human topoisomerase-1 expressed in baculovirus infected insect cells at 80 uM using supercoiled pGEM-5Zf(+) plasmid DNA as substrate after 30 mins by agarose gel electrophoresis method
T1 sequence (whole entry): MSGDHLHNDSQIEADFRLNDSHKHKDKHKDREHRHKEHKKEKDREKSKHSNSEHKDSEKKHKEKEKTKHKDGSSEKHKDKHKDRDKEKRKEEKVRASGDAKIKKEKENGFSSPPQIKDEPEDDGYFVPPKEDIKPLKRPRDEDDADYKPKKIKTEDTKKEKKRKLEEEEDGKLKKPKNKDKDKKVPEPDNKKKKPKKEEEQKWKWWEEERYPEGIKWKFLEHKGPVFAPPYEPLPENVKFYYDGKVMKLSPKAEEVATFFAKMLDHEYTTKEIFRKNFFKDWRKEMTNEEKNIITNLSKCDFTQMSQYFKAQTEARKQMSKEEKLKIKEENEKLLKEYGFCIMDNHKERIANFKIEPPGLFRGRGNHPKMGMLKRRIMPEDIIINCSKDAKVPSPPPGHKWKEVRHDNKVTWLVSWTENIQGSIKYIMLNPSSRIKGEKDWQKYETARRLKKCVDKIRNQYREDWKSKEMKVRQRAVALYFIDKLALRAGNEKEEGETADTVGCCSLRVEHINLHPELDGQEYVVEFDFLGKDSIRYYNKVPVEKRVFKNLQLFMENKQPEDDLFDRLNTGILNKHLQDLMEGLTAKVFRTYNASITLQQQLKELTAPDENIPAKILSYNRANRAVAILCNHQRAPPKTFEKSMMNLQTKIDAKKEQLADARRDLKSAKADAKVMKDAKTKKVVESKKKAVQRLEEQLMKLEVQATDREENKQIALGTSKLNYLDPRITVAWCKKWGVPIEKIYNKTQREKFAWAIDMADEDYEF

KB [2] = assay: Cytotoxicity against human KB cells assessed as reduction in cell viability after 72 hrs by MTT assay; assay type: functional, cell-based
MDA-MB-231 = assay: Cytotoxicity against human MDA-MB-231 cells assessed as reduction in cell viability after 72 hrs by MTT assay; assay type: functional, cell-based; conditions: MDA-MB-231, 72 h
LNCaP = assay: Cytotoxicity against human LNCAP cells assessed as reduction in cell viability after 72 hrs by MTT assay; assay type: functional, cell-based
HT-1080 = assay: Cytotoxicity against human HT1080 cells assessed as reduction in cell viability after 72 hrs by MTT assay; assay type: functional, cell-based; conditions: HT-1080, 72 h
KB [3] = assay: Cytotoxicity against human KB cells assessed as reduction in cell viability at 12.5 uM after 72 hrs by MTT assay; assay type: functional, cell-based

Row | inhibition [1] | Structure (SMILES) | IC50 (KB [2]) [µM] | IC50 (MDA-MB-231) [µM] | IC50 (LNCaP) [µM] | IC50 (HT-1080) [µM] | Activity (KB [3])
1 | Active | COc1ccc2cc3c(nc2c1)-c1nc2ccccc2n1C3 | 40.6 | > 100 | 25 | 95 | 
2 | Active | COc1ccc2nc3c(cc2c1)Cn1c-3nc2ccccc21 | 20 | > 100 | 24.7 | 52.3 | 
3 | Active | Brc1cccc2cc3c(nc12)-c1nc2ccccc2n1C3 | 15.3 | 11.3 | 8.4 | 66 | 
4 | Active | Cc1ccc2nc3c(cc2c1)Cn1c-3nc2ccccc21 | 11.3 | > 100 | 62.5 | 9.3 | 
5 | Active | Cc1ccc2cc3c(nc2c1)-c1nc2ccccc2n1C3 | 75 | > 100 | 39 | 8.7 | 
6 | Active | COc1cccc2cc3c(nc12)-c1nc2ccccc2n1C3 | 16.9 | > 100 | 20 | > 100 | 

Second part, the compound before the results:

Row | Structure (SMILES) | inhibition [1] | IC50 (KB [2]) [µM] | IC50 (MDA-MB-231) [µM] | IC50 (LNCaP) [µM] | IC50 (HT-1080) [µM] | Activity (KB [3])
7 | Cc1cccc2cc3c(nc12)-c1nc2ccccc2n1C3 | Active | 20 | > 100 | 23.8 | > 100 | 
8 | O=c1c2ccccc2nc2n1Cc1cc3ccccc3nc1-2 |  |  |  |  |  | Active
9 | c1ccc2nc3c(cc2c1)Cn1c-3nc2ccccc21 | Active | 10.9 | 12 | 11.3 | 52.9 | 
10 | Clc1cccc2cc3c(nc12)-c1nc2ccccc2n1C3 |  | 11.5 | 69 | 24 | 28.7 | Active
